# Where “and” joins values, the source holds several entries; their conditions need not be identical. Identical values can stand only once.
# Test system: 313798-341-R-J2-PDC spheroids, viability
# Test: Anticancer human tumor 313798-341-R-J2-PDC patient-derived cervical squamous cell carcinoma cell line growth inhibition [PI3K]
# Details: spheroids with HUVEC and MSC; for viability, T/C: stronger effect = lower value
# From the text: Combinatorial screen of targeted agents with the PI3K inhibitors inavolisib, alpelisib, duvelisib, and copanlisib in multi-cell type tumor spheroids
# A high-throughput screen of multi-cell type tumor spheroids was designed to identify active combinations of targeted small molecules and PI3K pathway inhibitors. Complex spheroids include a stromal component modeled by human endothelial cells (HUVEC) and fibroblasts modeled by human mesenchymal stem cells (MSCs). The concentration ranges selected for each drug and investigational agent were based upon clinically achievable concentrations if the clinical Cmax of the agent was known.
# Compounds. The drugs and investigational agents: inavolisib (NSC800729), alpelisib (NSC765974), duvelisib (NSC772469), copanlisib (NSC816437), ipatasertib (NSC767898), afuresertib (NSC778305), talazoparib (NSC767125), sapanisertib (NSC764658), selumetinib (NSC741078), tovorafenib (DAY101, NSC766906), vemurafenib (NSC761431), ravoxertinib (NSC781343), sotorasib (NSC818433), MRTX1133 (NSC 836407), abemaciclib (NSC 768073), palbociclib (NSC758247), venetoclax (NSC 766270), SY5609 (NSC837396), enzalutamide (NSC755605), and darolutamide (NSC825331), were obtained from the National Cancer Institute (NCI) Developmental Therapeutics Program Chemical Repository. The FDA-approved anticancer drug set is available from the NCI Developmental Therapeutics Program. […] The stock solutions were prepared in dimethyl sulfoxide (DMSO, Sigma-Aldrich, St. Louis, MO, cat. D2650) at 800-fold the tested concentration and stored at -70 degrees C prior to their use. All drugs and investigational agents were tested over a range starting from a high concentration at or near the clinical Cmax and decreasing in half-log increments. If the clinical Cmax for an agent had not been determined, the highest concentration tested was 10 microM.
# Cell Culture. All cells were maintained in an incubator at 37 degrees C and 5% CO2 with 95% humidity. The PDC lines were cultured according to standard operating procedures established by the NCI PDMR (https://pdmr.cancer.gov/sops/default.htm). All PDCs were thawed and cultured in Matrigel-coated flasks prepared with a working solution of 1X Ham's F-12 nutrient mix, without supplementation (Invitrogen, Waltham, MA, cat. 11765054), 100 U/mL penicillin-streptomycin (Invitrogen, cat. 15140122), and 2.5% Matrigel (Corning Inc., Corning, NY, cat. 354248) for the first three passages. The 354836-022-R-J1-PDC, 475296-252-R-J1-PDC, and 997726-040-R-J2-PDC lines were cultured in 6A media, which includes advanced DMEM/F-12 (Thermo Fisher Scientific, cat. 12634028), 10 mM HEPES (Thermo Fisher Scientific, cat. 15630080), 1X GlutaMAX supplement (Thermo Fisher Scientific, cat. 35050061), 0.1 mg/mL primocin (InvivoGen, San Diego, CA, cat. ant-pm-2), 10% defined fetal bovine serum, heat inactivated (HyClone Laboratories Inc., Logan, UT, cat. SH30070.03HI), 50% L-WRN conditioned media (ATCC, cat. CRL-3276), 1.25 mM N-Acetyl-L-cysteine (Sigma-Aldrich, cat. A9165), 10 mM nicotinamide (Sigma-Aldrich, cat. N0636), 1X B-27 supplement (Thermo Fisher Scientific, cat. 17504044), 1X N-2 supplement (Thermo Fisher Scientific, cat. 17502048), and 10 microM Y-27632 dihydrochloride (Tocris Bioscience, Bristol, United Kingdom, cat. 1254). The 624824-186-R-J2-PDC line was cultured in 6C/Colon 1B media, which includes all 6A media components plus 50 ng/mL human EGF recombinant protein (Thermo Fisher Scientific, cat. PHG0311). […]
# 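Further: spheroids exposed to compounds for seven days.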
# 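Wherever viability, T/C is given: 100% = DMSO vehicle control viability.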
structure (smiles),measurement,setting,value
CC(C)n1nc(-c2ccc3oc(N)nc3c2)c2c(N)ncnc21 + COc1c(OCCCN2CCOCC2)ccc2c3n(c(=NC(=O)c4cnc(N)nc4)nc12)CCN3,IC50,"curve of first compound, second compound 0.00316 µM",59.1 nM
same,IC50,"curve of first compound, second compound 0.01 µM",48.8 nM
same,IC50,"curve of first compound, second compound 0.0316 µM",18 nM
same,IC50,"curve of first compound, second compound 0.1 µM",< 0.316 nM
same,IC50,"curve of first compound, second compound 0.316 µM",< 0.316 nM
same,IC50,"curve of first compound, second compound 1 µM",< 0.316 nM
same,"viability, T/C","second compound 0.00316 µM, first compound 0.000316 µM",94.2%
same,"viability, T/C","second compound 0.00316 µM, first compound 0.001 µM",99%
same,"viability, T/C","second compound 0.00316 µM, first compound 0.00316 µM",97.3%
same,"viability, T/C","second compound 0.00316 µM, first compound 0.01 µM",84%
same,"viability, T/C","second compound 0.00316 µM, first compound 0.0316 µM",62.8%
same,"viability, T/C","second compound 0.00316 µM, first compound 0.1 µM",39.6%
same,"viability, T/C","second compound 0.01 µM, first compound 0.000316 µM",98.1%
same,"viability, T/C","second compound 0.01 µM, first compound 0.001 µM",83.9%
same,"viability, T/C","second compound 0.01 µM, first compound 0.00316 µM",83.3%
same,"viability, T/C","second compound 0.01 µM, first compound 0.01 µM",74%
same,"viability, T/C","second compound 0.01 µM, first compound 0.0316 µM",59.6%
same,"viability, T/C","second compound 0.01 µM, first compound 0.1 µM",35.4%
same,"viability, T/C","second compound 0.0316 µM, first compound 0.000316 µM",72.1%
same,"viability, T/C","second compound 0.0316 µM, first compound 0.001 µM",72.2%
same,"viability, T/C","second compound 0.0316 µM, first compound 0.00316 µM",85.8%
same,"viability, T/C","second compound 0.0316 µM, first compound 0.01 µM",52%
same,"viability, T/C","second compound 0.0316 µM, first compound 0.0316 µM",44.3%
same,"viability, T/C","second compound 0.0316 µM, first compound 0.1 µM",23.6%
same,"viability, T/C","second compound 0.1 µM, first compound 0.000316 µM",41.4%
same,"viability, T/C","second compound 0.1 µM, first compound 0.001 µM",39.7%
same,"viability, T/C","second compound 0.1 µM, first compound 0.00316 µM",40.2%
same,"viability, T/C","second compound 0.1 µM, first compound 0.01 µM",31.8%
same,"viability, T/C","second compound 0.1 µM, first compound 0.0316 µM",23.9%
same,"viability, T/C","second compound 0.1 µM, first compound 0.1 µM",13.4%
same,"viability, T/C","second compound 0.316 µM, first compound 0.000316 µM",17.7%
same,"viability, T/C","second compound 0.316 µM, first compound 0.001 µM",17.5%
same,"viability, T/C","second compound 0.316 µM, first compound 0.00316 µM",15.3%
same,"viability, T/C","second compound 0.316 µM, first compound 0.01 µM",13.8%
same,"viability, T/C","second compound 0.316 µM, first compound 0.0316 µM",14.3%
same,"viability, T/C","second compound 0.316 µM, first compound 0.1 µM",8.89%
same,"viability, T/C","second compound 1 µM, first compound 0.000316 µM",13.2%
same,"viability, T/C","second compound 1 µM, first compound 0.001 µM",10.9%
same,"viability, T/C","second compound 1 µM, first compound 0.00316 µM",10.3%
same,"viability, T/C","second compound 1 µM, first compound 0.01 µM",12.2%
same,"viability, T/C","second compound 1 µM, first compound 0.0316 µM",12.9%
same,"viability, T/C","second compound 1 µM, first compound 0.1 µM",8.5%
CC(C)n1nc(-c2ccc3oc(N)nc3c2)c2c(N)ncnc21,"viability, T/C",compound 0.000316 µM,99% [middle of 4 runs]
same,"viability, T/C",compound 0.001 µM,98.2% [middle of 4 runs]
same,"viability, T/C",compound 0.00316 µM,101% [middle of 4 runs]
same,"viability, T/C",compound 0.01 µM,86.7% [middle of 4 runs]
same,"viability, T/C",compound 0.0316 µM,77.7% [middle of 4 runs]
same,"viability, T/C",compound 0.1 µM,38.6% (2×) and 36.7% and 38.7%
same,IC50,curve of compound,71.3 nM [middle of 4 runs]
